Experiments:
[1] = tested on: M. tuberculosis persister cells; conditions: data not shown
Staphylococcus aureus = type: cell-based; conditions: stationary phase ≅10^9 bacteria/ml, 100 μg/ml ampicillin, 3 days
Escherichia coli K12 = type: cell-based; conditions: stationary phase ≅10^9 bacteria/ml, 50 μg/ml kanamycin, 3 days
M. tuberculosis [2] = experiment: RT-PCR of gene transcripts before and after rifampicin treatment; type: cell-based, Mycobacterium tuberculosis; conditions: 12 hours in growth medium alone
Method: The metabolic state of bacilli before and after rifampicin treatment was also assessed by examining total RNA which was extracted. RT-PCR was performed on the following genes; rpoB which encodes the rifampicin target (RNA polymerase sub-unit B); 16 kDa protein α-crystallin homolog); 16S rRNA and two Sigma 70 homologues, sigA and sigB.

M. tuberculosis H37Rv = type: cell-based, Mycobacterium tuberculosis
M. tuberculosis [3] = experiment: Incorporation of [3H]-uridine into RNA after addition of rifampicin; type: cell-based, Mycobacterium tuberculosis
Method: For incorporation of radioactive uridine, 10 ml of the culture for each time point was washed twice to remove the remaining rifampicin and then resuspended in 10 ml 7H9 medium followed by incubation with 10 μCi/ml of [^3H]-uridine for 20 hours. For 5* the culture was not washed after incubation with rifampicin and 10 μCi/ml of [^3H]-uridine was added to the culture which was further incubated in the presence of rifampicin for 20 hours. The RNA was extracted by methods known in the art. The RNA [^3H]-uridine incorporation was determined as counts per minute of trichloroacetic acid precipitated RNA. The results were confirmed in three independent experiments.

SMILES: O=C(O)CN(CCN(CC(=O)O)CC(=O)O)CC(=O)O [EDTA]
- effect on persister cell walls and efficacy of rifampicin [1]: permeabilizes persister cell walls and increases the efficacy of rifampicin

SMILES: CC1(C)S[C@@H]2[C@H](NC(=O)[C@H](N)c3ccccc3)C(=O)N2[C@H]1C(=O)O [ampicillin]
- phenotypically resistant subpopulation remaining (Staphylococcus aureus): ~10^5 bacteria/ml

SMILES: NC[C@H]1O[C@H](O[C@H]2[C@H](O)[C@@H](O[C@H]3O[C@H](CO)[C@@H](O)[C@H](N)[C@H]3O)[C@H](N)C[C@@H]2N)[C@H](O)[C@@H](O)[C@@H]1O [kanamycin]
- phenotypically resistant subpopulation remaining (Escherichia coli K12): ~10^5 bacteria/ml

SMILES: CO[C@H]1/C=C/O[C@@]2(C)Oc3c(C)c(O)c4c(O)c(c(/C=N/N5CCN(C)CC5)c(O)c4c3C2=O)NC(=O)/C(C)=C\C=C\[C@H](C)[C@H](O)[C@@H](C)[C@@H](O)[C@@H](C)[C@H](OC(C)=O)[C@@H]1C [rifampicin]
- increase of level of transcription (16K, sigA and rpoB transcripts) after removal of rifampicin (M. tuberculosis [2]): 5- to 10 fold
- Broth counts (M. tuberculosis H37Rv): 10^2 bacteria/ml
- Broth dilution counts of rifampicin treated cultures (M. tuberculosis H37Rv): 10^2 bacteria/ml
- [3H]-uridine incorporation (M. tuberculosis [3]; 100 μg/ml rifampicin 1 day, washed, then 20 h with [3H]-uridine): 2228 ± 88 counts per minute
- [3H]-uridine incorporation (M. tuberculosis [3]; 100 μg/ml rifampicin 2 days, washed, then 20 h with [3H]-uridine): 2316 ± 120 counts per minute
- [3H]-uridine incorporation (M. tuberculosis [3]; 100 μg/ml rifampicin 3 days, washed, then 20 h with [3H]-uridine): 2430 ± 54 counts per minute
- [3H]-uridine incorporation (M. tuberculosis [3]; 100 μg/ml rifampicin 4 days, washed, then 20 h with [3H]-uridine): 2318 ± 126 counts per minute
- [3H]-uridine incorporation (M. tuberculosis [3]; 100 μg/ml rifampicin 5 days, washed, then 20 h with [3H]-uridine): 2388 ± 20 counts per minute
- [3H]-uridine incorporation (M. tuberculosis [3]; 5*: 5 days, not washed, [3H]-uridine 20 h in the presence of rifampicin): 518 ± 10 counts per minute
- increase of radioactive uridine incorporation after removal of rifampicin (M. tuberculosis [3]; medium alone versus in the presence of rifampicin (5 versus 5* days)): about 5 fold

Source: patent US7892782B2 (priority 1998, dated 2011)
